Literature values, collected in patent US20250025455A1, “CONTROLLED-RELEASE NICOTINE CHEWING GUM” (Altria Client Services LLC, priority 2023, published 2025).

Details: free base (non-protonated) nicotine

## CN1CCCC1c1cccnc1 (stereo not shown) [Free-base nicotine, 3-(1-methyl-2-pyrrolidinyl) pyridine]
  pKa value: about 8
